# According to ChEMBL document CHEMBL1133367, “Structure-activity relationship studies of chloromethyl ketone derivatives for selective human chymase inhibitors” (Bioorg Med Chem Lett, 2000):
# How the values were obtained:
# Chymase = molecular target: T1, Chymase (Homo sapiens, UniProt P23946); test: Inhibitory activity against human serine protease chymase
# T1 sequence (P23946 whole entry): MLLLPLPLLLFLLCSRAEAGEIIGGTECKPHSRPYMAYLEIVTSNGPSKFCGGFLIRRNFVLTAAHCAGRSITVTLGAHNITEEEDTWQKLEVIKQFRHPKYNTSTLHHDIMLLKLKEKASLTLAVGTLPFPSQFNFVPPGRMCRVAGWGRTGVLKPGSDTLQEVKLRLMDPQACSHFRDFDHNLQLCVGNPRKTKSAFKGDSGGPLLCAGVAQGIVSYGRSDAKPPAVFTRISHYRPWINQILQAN
# Trypsin = Trypsin (Sus scrofa, UniProt P00761); test: Inhibitory activity against porcine pancreatic trypsin (TRP)
# Chain of Trypsin (P00761 whole entry): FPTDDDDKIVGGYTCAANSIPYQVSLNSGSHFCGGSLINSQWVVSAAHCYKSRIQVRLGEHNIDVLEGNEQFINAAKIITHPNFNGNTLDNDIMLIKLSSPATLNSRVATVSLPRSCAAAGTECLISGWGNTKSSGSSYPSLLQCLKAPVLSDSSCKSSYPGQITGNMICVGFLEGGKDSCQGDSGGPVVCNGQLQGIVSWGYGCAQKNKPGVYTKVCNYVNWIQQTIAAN
# Chymotrypsinogen A = Chymotrypsinogen A (Bos taurus, UniProt P00766); test: Inhibitory activity against alpha-chymotrypsin (alpha-CT)
# Cathepsin G = molecular target: T2, Cathepsin G (Homo sapiens, UniProt P08311); test: Inhibitory activity against human leukocyte cathepsin G
# T2 sequence (P08311 whole entry): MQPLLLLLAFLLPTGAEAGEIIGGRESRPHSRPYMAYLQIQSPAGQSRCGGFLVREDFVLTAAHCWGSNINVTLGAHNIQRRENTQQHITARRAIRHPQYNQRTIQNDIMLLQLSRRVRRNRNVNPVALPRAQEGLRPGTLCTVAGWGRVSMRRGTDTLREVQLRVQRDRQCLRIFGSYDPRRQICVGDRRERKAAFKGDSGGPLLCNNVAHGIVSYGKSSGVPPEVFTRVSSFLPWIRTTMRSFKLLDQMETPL
Compound,IC50 (Chymase) [µM],IC50 (Trypsin) [µM],IC50 (Chymotrypsinogen A) [µM],IC50 (Cathepsin G) [µM]
CCc1ccc(CCC(=O)N[C@@H](Cc2ccccc2)C(=O)CCl)cc1,,120,37,
O=C(CCCCc1ccccc1)N[C@@H](Cc1ccccc1)C(=O)CCl,1.2,> 1000,18,
O=C(CCc1cccc(F)c1)N[C@@H](Cc1ccccc1)C(=O)CCl,1.2,> 1000,44,
CC(C)c1ccc(CCC(=O)N[C@@H](Cc2ccccc2)C(=O)CCl)cc1,,4,39,
O=C(CCc1cccc(Cl)c1)N[C@@H](Cc1ccccc1)C(=O)CCl,0.89,44,23,
COc1cccc(CCC(=O)N[C@@H](Cc2ccccc2)C(=O)CCl)c1,,> 1000,85,
O=C(CCc1ccc(F)cc1)N[C@@H](Cc1ccccc1)C(=O)CCl,2.4,> 1000,100,
O=C(CCCc1ccccc1)N[C@@H](Cc1ccccc1)C(=O)CCl,2.5,690,26,
COc1ccc(CCC(=O)N[C@@H](Cc2ccccc2)C(=O)CCl)cc1OC,,> 1000,51,
Cc1ccc(CCC(=O)N[C@@H](Cc2ccccc2)C(=O)CCl)cc1,0.3,260,97,
O=C(CCc1ccccc1F)N[C@@H](Cc1ccccc1)C(=O)CCl,0.36,,34,
O=C(Cc1ccccc1)N[C@@H](Cc1ccccc1)C(=O)CCl,4.7,> 1000,20,
O=C(CCc1ccccc1Cl)N[C@@H](Cc1ccccc1)C(=O)CCl,0.6,85,97,
O=C(CCc1ccccc1)N[C@@H](Cc1ccccc1)C(=O)CCl,,> 1000,37,
Cc1ccc(S(=O)(=O)N[C@@H](Cc2ccccc2)C(=O)CCl)cc1 [TPCK],3.3,200,140,110

# Now from value to molecule:
IC50 (Chymase) [µM],IC50 (Trypsin) [µM],IC50 (Chymotrypsinogen A) [µM],IC50 (Cathepsin G) [µM],Compound
0.43,290,11,,Cc1cccc(CCC(=O)N[C@@H](Cc2ccccc2)C(=O)CCl)c1
,> 1000,2.2,9.3,COc1ccc(CCC(=O)N[C@@H](Cc2ccccc2)C(=O)CCl)cc1
3.7,28,4.2,,O=C(CCc1ccc(Cl)c(Cl)c1)N[C@@H](Cc1ccccc1)C(=O)CCl
,34,20,,O=C(CCc1cccc(C(F)(F)F)c1)N[C@@H](Cc1ccccc1)C(=O)CCl
1.3,240,9.3,,O=C(N[C@@H](Cc1ccccc1)C(=O)CCl)c1ccccc1
0.4,210,17,,O=C(N[C@@H](Cc1ccccc1)C(=O)CCl)OCc1ccccc1
1.8,75,5.2,,O=C(CCc1cccc(O)c1)N[C@@H](Cc1ccccc1)C(=O)CCl
1.9,> 1000,18,,O=C(CCc1ccc(Cl)cc1)N[C@@H](Cc1ccccc1)C(=O)CCl
,30,17,,O=C(CCc1ccc(C(F)(F)F)cc1)N[C@@H](Cc1ccccc1)C(=O)CCl
0.78,600,12,,Cc1ccccc1CCC(=O)N[C@@H](Cc1ccccc1)C(=O)CCl
2.7,> 1000,14,,O=C(CCc1ccc(O)cc1)N[C@@H](Cc1ccccc1)C(=O)CCl
,> 1000,2.2,,COc1cccc(CCC(=O)N[C@@H](Cc2ccccc2)C(=O)CCl)c1OC
,34,2.7,,COc1ccccc1CCC(=O)N[C@@H](Cc1ccccc1)C(=O)CCl
0.4,97,10,,O=C(CCc1cccc(Cl)c1Cl)N[C@@H](Cc1ccccc1)C(=O)CCl
15,210,8.7,,O=C(/C=C/c1ccccc1)N[C@@H](Cc1ccccc1)C(=O)CCl
